ChEMBL document CHEMBL6109129, “Discovery of Conformationally Constrained Dihydro Benzo-Indole Derivatives as Metallo-β-Lactamase Inhibitors to Tackle Multidrug-Resistant Bacterial Infections” (J Med Chem, 2025)
Active and inactive are the calls of the source. The calls are words filed in the database; no cut-off is given here.

Experiments:
Klebsiella pneumoniae [1] = test: Synergistic antibacterial activity against Klebsiella pneumoniae ATCC BAA 2146 expressing NDM-1 measured after 16 to 18 hrs in presence of imipenem by microbial dilution method; assay type: functional, organism-based; settings: time 16-18 hrs
[2] = target: Metallo-beta-lactamase type 2 (Bacteria) (UniProt C7C422); test: Induction of thermal stabilization of NDM-1 (unknown origin) assessed as melting temperature at 3.12 uM by differential scanning fluorimetry analysis
Klebsiella pneumoniae [3] = test: Synergistic antibacterial activity against carbapenem-resistant Klebsiella pneumoniae BAA-2473 assessed as reduction in microbial growth at 16 ug/ml measured after 16 to 18 hrs in presence of meropenem by microbial dilution method; assay type: functional; settings: dose 16 µg/ml, time 16-18 hrs
[4] = tested on: Klebsiella pneumoniae subsp. pneumoniae; test: Synergistic antibacterial activity against carbapenem-resistant Klebsiella pneumoniae subsp. pneumoniae BAA-2472 assessed as reduction in microbial growth at 0.5 ug/ml measured after 16 to 18 hrs in presence of meropenem by microbial dilution method; assay type: functional; settings: dose 0.5 µg/ml, time 16-18 hrs
[5] = tested on: Klebsiella pneumoniae subsp. pneumoniae; test: Synergistic antibacterial activity against carbapenem-resistant Klebsiella pneumoniae BAA-2472 assessed as reduction in microbial growth at 16 ug/ml measured after 16 to 18 hrs in presence of meropenem by microbial dilution method; assay type: functional; settings: dose 16 µg/ml, time 16-18 hrs
Escherichia coli [6] = test: Synergistic antibacterial activity against carbapenem-resistant Escherichia coli BAA-2471 assessed as reduction in microbial growth at 0.5 ug/ml measured after 16 to 18 hrs in presence of meropenem by microbial dilution method; assay type: functional; settings: dose 0.5 µg/ml, time 16-18 hrs
[7] = tested on: Klebsiella pneumoniae subsp. pneumoniae; test: Synergistic antibacterial activity against carbapenem-resistant Klebsiella pneumoniae BAA-2470 assessed as reduction in microbial growth at 16 ug/ml measured after 16 to 18 hrs in presence of meropenem by microbial dilution method; assay type: functional; settings: dose 16 µg/ml, time 16-18 hrs
Escherichia coli [8] = test: Synergistic antibacterial activity against carbapenem-resistant Escherichia coli BAA-2469 assessed as reduction in microbial growth at 0.5 ug/ml measured after 16 to 18 hrs in presence of meropenem by microbial dilution method; assay type: functional; settings: dose 0.5 µg/ml, time 16-18 hrs
Escherichia coli [9] = test: Synergistic antibacterial activity against carbapenem-resistant Escherichia coli BAA-2469 assessed as reduction in microbial growth at 8 ug/ml measured after 16 to 18 hrs in presence of meropenem by microbial dilution method; assay type: functional; settings: dose 8 µg/ml, time 16-18 hrs
Klebsiella pneumoniae [10] = test: Synergistic antibacterial activity against carbapenem-resistant Klebsiella pneumoniae BAA-2473 assessed as reduction in microbial growth at 0.5 ug/ml measured after 16 to 18 hrs in presence of imipenem by microbial dilution method; assay type: functional; settings: dose 0.5 µg/ml, time 16-18 hrs
Klebsiella pneumoniae [11] = test: Synergistic antibacterial activity against carbapenem-resistant Klebsiella pneumoniae BAA-2473 assessed as reduction in microbial growth at 8 ug/ml measured after 16 to 18 hrs in presence of imipenem by microbial dilution method; assay type: functional; settings: dose 8 µg/ml, time 16-18 hrs
[12] = tested on: Klebsiella pneumoniae subsp. pneumoniae; test: Synergistic antibacterial activity against carbapenem-resistant Klebsiella pneumoniae subsp. pneumoniae BAA-2472 assessed as reduction in microbial growth at 0.5 ug/ml measured after 16 to 18 hrs in presence of imipenem by microbial dilution method; assay type: functional; settings: dose 0.5 µg/ml, time 16-18 hrs
[13] = tested on: Klebsiella pneumoniae subsp. pneumoniae; test: Synergistic antibacterial activity against carbapenem-resistant Klebsiella pneumoniae subsp. pneumoniae BAA-2472 assessed as reduction in microbial growth at 8 ug/ml measured after 16 to 18 hrs in presence of imipenem by microbial dilution method; assay type: functional; settings: dose 8 µg/ml, time 16-18 hrs
[14] = tested on: Klebsiella pneumoniae subsp. pneumoniae; test: Synergistic antibacterial activity against carbapenem-resistant Klebsiella pneumoniae BAA-2472 assessed as reduction in microbial growth at 16 ug/ml measured after 16 to 18 hrs in presence of imipenem by microbial dilution method; assay type: functional; settings: dose 16 µg/ml, time 16-18 hrs
Escherichia coli [15] = test: Synergistic antibacterial activity against carbapenem-resistant Escherichia coli BAA-2471 assessed as reduction in microbial growth at 8 ug/ml measured after 16 to 18 hrs in presence of imipenem by microbial dilution method; assay type: functional; settings: dose 8 µg/ml, time 16-18 hrs
Klebsiella pneumoniae [16] = test: Synergistic antibacterial activity against carbapenem-resistant Klebsiella pneumoniae 571278 assessed as reduction in microbial growth at 4 ug/ml measured after 16 to 18 hrs in presence of meropenem by microbial dilution method; assay type: functional; settings: dose 4 µg/ml, time 16-18 hrs
Escherichia coli [17] = test: Synergistic antibacterial activity against carbapenem-resistant Escherichia coli 565988 assessed as reduction in microbial growth at 16 ug/ml measured after 16 to 18 hrs in presence of meropenem by microbial dilution method; assay type: functional; settings: dose 16 µg/ml, time 16-18 hrs
Klebsiella pneumoniae [18] = test: Synergistic antibacterial activity against carbapenem-resistant Klebsiella pneumoniae 538961 assessed as reduction in microbial growth at 4 ug/ml measured after 16 to 18 hrs in presence of meropenem by microbial dilution method; assay type: functional; settings: dose 4 µg/ml, time 16-18 hrs
Escherichia coli [19] = test: Synergistic antibacterial activity against carbapenem-resistant Escherichia coli 541588 assessed as reduction in microbial growth at 16 ug/ml measured after 16 to 18 hrs in presence of meropenem by microbial dilution method; assay type: functional; settings: dose 16 µg/ml, time 16-18 hrs
Escherichia coli [20] = test: Synergistic antibacterial activity against carbapenem-resistant Escherichia coli 567975 assessed as reduction in microbial growth at 4 ug/ml measured after 16 to 18 hrs in presence of imipenem by microbial dilution method; assay type: functional; settings: dose 4 µg/ml, time 16-18 hrs
Escherichia coli [21] = test: Synergistic antibacterial activity against carbapenem-resistant Escherichia coli 567975 assessed as reduction in microbial growth at 16 ug/ml measured after 16 to 18 hrs in presence of imipenem by microbial dilution method; assay type: functional; settings: dose 16 µg/ml, time 16-18 hrs
Escherichia coli [22] = test: Synergistic antibacterial activity against carbapenem-resistant Escherichia coli 565988 assessed as reduction in microbial growth at 16 ug/ml measured after 16 to 18 hrs in presence of imipenem by microbial dilution method; assay type: functional; settings: dose 16 µg/ml, time 16-18 hrs
Klebsiella pneumoniae [23] = test: Synergistic antibacterial activity against carbapenem-resistant Klebsiella pneumoniae 552439 assessed as reduction in microbial growth at 4 ug/ml measured after 16 to 18 hrs in presence of imipenem by microbial dilution method; assay type: functional; settings: dose 4 µg/ml, time 16-18 hrs
Klebsiella pneumoniae [24] = test: Synergistic antibacterial activity against carbapenem-resistant Klebsiella pneumoniae 552439 assessed as reduction in microbial growth at 16 ug/ml measured after 16 to 18 hrs in presence of imipenem by microbial dilution method; assay type: functional; settings: dose 16 µg/ml, time 16-18 hrs
Klebsiella pneumoniae [25] = test: Synergistic antibacterial activity against carbapenem-resistant Klebsiella pneumoniae 538961 assessed as reduction in microbial growth at 4 ug/ml measured after 16 to 18 hrs in presence of imipenem by microbial dilution method; assay type: functional; settings: dose 4 µg/ml, time 16-18 hrs
Klebsiella pneumoniae [26] = test: Anti-infective activity against carbapenem-resistant Klebsiella pneumoniae ATCC BAA 2146 expressing NDM-1 infected in neutropenic female BALB/c mouse deep thigh infection model assessed as reduction in bacterial count at 20 mg/kg,sc pre-infected with bacteria for 2 hrs followed by compound addition and measured after 26 hrs in presence of imipenem; assay type: functional
[27] = Octanol/aqueous buffer distribution coefficient, log D of the compound at pH 7.4 incubated for 4 hrs under shaking condition by HPLC analysis; assay type: physicochemical
[28] = Plasma protein binding in mouse assessed as unbound fraction at 10 uM measured after 5 hrs by LC-MS/MS analysis; assay type: ADME, cell-free
[29] = Metabolic stability in mouse liver microsomes assessed as parent compound remaining at 1 uM measured at 60 mins in presence of NADPH by LC-MS/MS analysis; assay type: ADME, Microsome; settings: read-out: Stability
[30] = Metabolic stability in human liver microsomes assessed as parent compound remaining at 1 uM measured at 60 mins in presence of NADPH by LC-MS/MS analysis; assay type: ADME, Microsome; settings: read-out: Stability
HepG2 = test: Cytotoxicity in human HepG2 cells assessed as inhibition of cell growth measured after 24 hrs by MTT assay; assay type: functional, cell-based; settings: HepG2, 24 h

Chain of Metallo-beta-lactamase type 2 (Bacteria) (C7C422 whole entry): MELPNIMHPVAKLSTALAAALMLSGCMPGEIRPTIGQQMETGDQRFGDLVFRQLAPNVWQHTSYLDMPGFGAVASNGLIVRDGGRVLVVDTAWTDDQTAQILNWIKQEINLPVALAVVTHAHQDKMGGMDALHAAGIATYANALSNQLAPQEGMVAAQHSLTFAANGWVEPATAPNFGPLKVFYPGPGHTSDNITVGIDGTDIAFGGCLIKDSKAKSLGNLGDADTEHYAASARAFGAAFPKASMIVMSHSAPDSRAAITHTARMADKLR

For `COc1ccc(Cl)cc1-c1c(C(=O)O)[nH]c2c1CCc1ccccc1-2`, the Activity (Klebsiella pneumoniae [1]) was “Active”, the Tm [2] was 14 °C and the MIC (Klebsiella pneumoniae [3]) was 8 µg/mL. It also gave an MIC [4] greater than 64 µg/mL, an MIC [5] of 32 µg/mL and an MIC (Escherichia coli [6]) of 64 µg/mL. It also gave an MIC [7] of 4 µg/mL, an MIC (Escherichia coli [8]) of 16 µg/mL and an MIC (Escherichia coli [9]) of 4 µg/mL. For the same compound, the MIC (Klebsiella pneumoniae [10]) was 64 µg/mL, the MIC (Klebsiella pneumoniae [11]) was 16 µg/mL and the MIC [12] was 64 µg/mL. It also gave an MIC [13] of 32 µg/mL, an MIC [14] of 8 µg/mL and an MIC (Escherichia coli [15]) of 16 µg/mL. For the same compound, the MIC (Klebsiella pneumoniae [16]) was 32 µg/mL, the MIC (Escherichia coli [17]) was less than 0.5 µg/mL and the MIC (Klebsiella pneumoniae [18]) was 16 µg/mL. For the same compound, the MIC (Escherichia coli [19]) was 1 µg/mL, the MIC (Escherichia coli [20]) was 8 µg/mL and the MIC (Escherichia coli [21]) was 1 µg/mL. For the same compound, the MIC (Escherichia coli [22]) was less than 0.5 µg/mL, the MIC (Klebsiella pneumoniae [23]) was 4 µg/mL and the MIC (Klebsiella pneumoniae [24]) was 1 µg/mL. For the same compound, the MIC (Klebsiella pneumoniae [25]) was 32 µg/mL, the Activity (Klebsiella pneumoniae [26]) was roughly 2.2 log10CFU/ml and the logD at 4 h [27] was 2.58. It also gave a fraction unbound at 5 h, 10 µM [28] of 0.952, a remaining at 1 h, 1 µM [29] of 44.2% and a remaining at 1 h, 1 µM [30] of 56%. The IC50 (HepG2) was greater than 400 µM.
